Laboratory results: ChEMBL document CHEMBL4665820, “Discovery of VU6027459: A First-in-Class Selective and CNS Penetrant mGlu Positive Allosteric Modulator Tool Compound” (ACS Med Chem Lett, 2020)

What was measured:
[1] = target: Mu-type opioid receptor (Homo sapiens) (UniProt P35372); experiment: Displacement of [3H]DAMGO from human recombinant mu receptor at 10 uM after 120 mins by scintillation counting analysis relative to control
[2] = target: Metabotropic glutamate receptor 7 (Rattus norvegicus) (UniProt P35400); experiment: (§1) Positive allosteric modulation of rat mGlu7 receptor expressed in HEK293 cells co-expressing Gai5 assessed as potentiation of L-AP4-induced calcium mobilization preincubated for 140 secs and treated with EC20 L-AP4 for 125 secs and followed by subsequent addition of EC80 L-AP4 by Fluo-4-AM dye based fluorescence assay relative to maximal induction of L-AP4; format: functional, cell-based; conditions: filed as positive allosteric modulator, time 140.0 sec
Sequence of Metabotropic glutamate receptor 7 (Rattus norvegicus) (P35400 whole entry): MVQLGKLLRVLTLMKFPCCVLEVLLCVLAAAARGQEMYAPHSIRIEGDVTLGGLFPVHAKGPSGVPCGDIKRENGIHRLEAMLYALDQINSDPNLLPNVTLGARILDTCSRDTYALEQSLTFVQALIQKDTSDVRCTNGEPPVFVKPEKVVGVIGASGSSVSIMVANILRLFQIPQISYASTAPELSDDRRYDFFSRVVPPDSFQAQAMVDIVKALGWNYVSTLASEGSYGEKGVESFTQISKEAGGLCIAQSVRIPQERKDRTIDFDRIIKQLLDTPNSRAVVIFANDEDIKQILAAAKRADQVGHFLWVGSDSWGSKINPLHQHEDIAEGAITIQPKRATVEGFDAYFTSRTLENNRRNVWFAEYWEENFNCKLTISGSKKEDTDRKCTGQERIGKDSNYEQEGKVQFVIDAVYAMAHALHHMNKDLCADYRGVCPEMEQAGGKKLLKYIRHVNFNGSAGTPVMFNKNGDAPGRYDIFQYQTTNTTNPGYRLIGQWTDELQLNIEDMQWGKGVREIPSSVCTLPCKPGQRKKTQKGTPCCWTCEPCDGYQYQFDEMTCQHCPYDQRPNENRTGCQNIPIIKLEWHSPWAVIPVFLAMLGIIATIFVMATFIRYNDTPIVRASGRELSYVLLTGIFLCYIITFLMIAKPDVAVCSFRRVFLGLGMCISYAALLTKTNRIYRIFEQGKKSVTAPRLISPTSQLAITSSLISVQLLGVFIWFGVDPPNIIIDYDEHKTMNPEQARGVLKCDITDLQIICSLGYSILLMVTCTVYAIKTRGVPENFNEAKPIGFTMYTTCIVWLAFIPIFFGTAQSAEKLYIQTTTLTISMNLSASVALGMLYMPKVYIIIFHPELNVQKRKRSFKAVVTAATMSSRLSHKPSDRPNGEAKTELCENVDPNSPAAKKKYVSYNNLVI

[3] = target: Neuronal acetylcholine receptor; alpha3/beta4 (Homo sapiens) (UniProt P30926+P32297); experiment: Displacement of [125I] epibatidine from human nicotinic acetylcholine receptor alpha3/beta4 at 10 uM incubated for 60 mins by scintillation counting analysis relative to control; format: protein-complex assay
[4] = target: Metabotropic glutamate receptor 7 (Rattus norvegicus) (UniProt P35400); experiment: Positive allosteric modulation of rat mGlu7 expressed in HEK293 cells co- expressing GIRK assessed as potentiation of L-AP4-induced thallium flux incubated for 140 sec by FluoZin2-AM dye based fluorescence analysis relative to maximal induction of L-AP4; format: cell-based; conditions: filed as positive allosteric modulator
[5] = target: Adenosine receptor A1 (Homo sapiens) (UniProt P30542); experiment: Displacement of [3H]-DPCPX from human recombinant adenosine A1 receptor at 10 uM after 60 mins by scintillation counting analysis relative to control
Sequence of Adenosine receptor A1 (Homo sapiens) (P30542 whole entry): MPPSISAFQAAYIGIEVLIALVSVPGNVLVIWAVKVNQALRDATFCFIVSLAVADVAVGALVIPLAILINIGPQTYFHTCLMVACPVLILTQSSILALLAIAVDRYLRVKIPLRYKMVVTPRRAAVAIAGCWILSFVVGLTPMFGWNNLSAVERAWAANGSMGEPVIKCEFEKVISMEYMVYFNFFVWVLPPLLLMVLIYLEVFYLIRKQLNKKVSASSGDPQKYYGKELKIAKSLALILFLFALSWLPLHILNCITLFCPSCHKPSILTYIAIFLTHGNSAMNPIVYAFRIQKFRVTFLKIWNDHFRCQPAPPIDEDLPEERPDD

[6] = Fraction unbound in rat plasma at 5 uM incubated for 4 hrs by equilibrium dialysis based LC-MS/MS analysis; format: ADME, cell-free
[7] = target: Beta-1 adrenergic receptor (Homo sapiens) (UniProt P08588); experiment: Displacement of [3H](-)CGP 12177 from human beta1 adrenoceptor at 10 uM after 60 mins by scintillation counting analysis relative to control
[8] = target: Metabotropic glutamate receptor 7 (Rattus norvegicus, UniProt P35400); experiment: as §1, with “assay” for “assay relative to maximal induction of L-AP4”; format: functional, cell-based; conditions: read-out: EC50
Sequence of Metabotropic glutamate receptor 7 (P35400 whole entry): as the sequence (P35400 whole entry) above

[9] = target: Alpha-1D adrenergic receptor (Homo sapiens) (UniProt P25100); experiment: Displacement of [3H]-Prazosin from human recombinant adrenergic alpha 1D receptor at 10 uM incubated for 60 mins by scintillation counting analysis relative to control
Sequence of Alpha-1D adrenergic receptor (Homo sapiens) (P25100 whole entry): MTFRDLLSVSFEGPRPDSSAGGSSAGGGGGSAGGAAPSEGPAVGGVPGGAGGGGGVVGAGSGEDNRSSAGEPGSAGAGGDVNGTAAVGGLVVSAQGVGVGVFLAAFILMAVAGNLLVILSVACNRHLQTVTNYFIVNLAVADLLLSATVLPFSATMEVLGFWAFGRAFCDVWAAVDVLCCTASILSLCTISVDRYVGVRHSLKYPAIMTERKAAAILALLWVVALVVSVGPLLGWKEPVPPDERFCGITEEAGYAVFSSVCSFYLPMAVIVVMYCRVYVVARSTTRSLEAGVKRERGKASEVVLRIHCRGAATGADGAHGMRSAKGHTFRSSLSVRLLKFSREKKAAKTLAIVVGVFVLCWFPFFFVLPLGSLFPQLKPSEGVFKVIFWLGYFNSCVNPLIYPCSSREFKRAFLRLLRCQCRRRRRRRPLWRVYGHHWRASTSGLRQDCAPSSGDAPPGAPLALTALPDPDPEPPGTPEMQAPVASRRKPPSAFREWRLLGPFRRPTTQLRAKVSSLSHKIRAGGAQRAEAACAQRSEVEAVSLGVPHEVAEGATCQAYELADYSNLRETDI

[10] = target: Muscarinic acetylcholine receptor M3 (Homo sapiens) (UniProt P20309); experiment: Displacement of [3H]4-DAMP from human recombinant M3 receptor at 10 uM after 60 mins by scintillation counting analysis relative to control
Sequence of Muscarinic acetylcholine receptor M3 (Homo sapiens) (P20309 whole entry, looked up): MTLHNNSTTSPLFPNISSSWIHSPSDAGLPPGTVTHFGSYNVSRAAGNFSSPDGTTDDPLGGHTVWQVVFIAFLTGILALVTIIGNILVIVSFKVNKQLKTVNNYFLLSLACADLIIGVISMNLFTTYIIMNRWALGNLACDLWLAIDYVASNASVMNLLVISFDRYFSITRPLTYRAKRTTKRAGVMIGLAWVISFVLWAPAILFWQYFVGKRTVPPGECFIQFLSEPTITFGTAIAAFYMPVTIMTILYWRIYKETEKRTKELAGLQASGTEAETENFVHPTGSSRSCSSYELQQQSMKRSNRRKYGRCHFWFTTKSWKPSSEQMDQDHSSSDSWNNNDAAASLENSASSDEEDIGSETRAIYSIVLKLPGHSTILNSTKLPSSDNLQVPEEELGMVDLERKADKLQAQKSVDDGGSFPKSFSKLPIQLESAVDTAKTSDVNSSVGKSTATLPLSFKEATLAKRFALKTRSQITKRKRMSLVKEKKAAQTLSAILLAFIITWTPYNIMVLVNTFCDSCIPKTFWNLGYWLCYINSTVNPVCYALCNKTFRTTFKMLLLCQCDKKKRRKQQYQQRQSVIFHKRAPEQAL

[11] = target: B1 bradykinin receptor (Homo sapiens) (UniProt P46663); experiment: Displacement of [3H]desArg10-KD from human recombinant Bradykinin B1 receptor at 10 uM incubated for 120 mins by scintillation counting analysis relative to control
[12] = target: Cannabinoid receptor 1 (Homo sapiens) (UniProt P21554); experiment: Displacement of [3H]-SR141716A from human recombinant full length Cannabinoid CB1 receptor at 10 uM incubated for 60 mins by scintillation counting analysis relative to control
[13] = target: Endothelin receptor type B (Homo sapiens) (UniProt P24530); experiment: Displacement of [125I]-endothelin1 from human recombinant Endothelin ETB receptor cells at 10 uM incubated for 120 mins by scintillation counting analysis relative to control; format: cell-based
Sequence of Endothelin receptor type B (Homo sapiens) (P24530 whole entry): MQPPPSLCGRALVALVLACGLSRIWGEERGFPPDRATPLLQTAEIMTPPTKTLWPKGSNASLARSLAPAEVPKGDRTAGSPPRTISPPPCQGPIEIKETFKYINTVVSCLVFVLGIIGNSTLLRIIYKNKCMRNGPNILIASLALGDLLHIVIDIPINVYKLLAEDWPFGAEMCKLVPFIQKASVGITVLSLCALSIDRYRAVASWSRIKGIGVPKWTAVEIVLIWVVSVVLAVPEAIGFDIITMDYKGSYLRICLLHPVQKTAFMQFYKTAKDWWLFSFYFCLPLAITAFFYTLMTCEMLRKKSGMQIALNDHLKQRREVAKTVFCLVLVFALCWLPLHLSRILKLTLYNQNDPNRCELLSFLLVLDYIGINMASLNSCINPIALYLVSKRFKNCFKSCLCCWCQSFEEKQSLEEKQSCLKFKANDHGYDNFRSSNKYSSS

Rattus norvegicus [14] = organism: Rattus norvegicus; experiment: Displacement of [3H]-Muscimol from GABAA channel muscimol binding site in rat brain at 10 uM incubated for 10 mins by scintillation counting analysis relative to control; format: tissue-based
[15] = target: Adenosine receptor A3 (Homo sapiens) (UniProt P0DMS8); experiment: Displacement of [125I]AB-MECA from human recombinant adenosine A3 receptor at 10 uM after 120 mins by scintillation counting analysis relative to control
[16] = target: D(1A) dopamine receptor (Homo sapiens) (UniProt P21728); experiment: Displacement of [3H]-SCH 23390 from human recombinant dopamine D1 receptor at 10 uM by scintillation counting 60 mins analysis relative to control
[17] = target: Estrogen receptor (Homo sapiens) (UniProt P03372); experiment: Displacement of [3H]-estradiol from human recombinant Estrogen ERalpha receptor at 10 uM incubated for 120 mins by scintillation counting analysis relative to control
[18] = target: Gamma-aminobutyric acid type B receptor subunit 1 (Homo sapiens) (UniProt Q9UBS5); experiment: Displacement of [3H]-CGP54626 from human recombinant GABAB1A channel at 10 uM incubated for 180 mins by scintillation counting analysis relative to control
Rattus norvegicus [19] = organism: Rattus norvegicus; experiment: Displacement of [3H]-Nitrendipine from L-type calcium channel dihydropyridine binding site in rat brain at 10 uM incubated for 90 mins by scintillation counting analysis relative to control; format: tissue-based
Rattus norvegicus [20] = organism: Rattus norvegicus; experiment: Displacement of [3H]-Kainic acid from Glutamate ionotropic kainate receptor in rat at 10 uM incubated for 120 mins by scintillation counting analysis relative to control
[21] = target: 5-hydroxytryptamine receptor 2B (Homo sapiens) (UniProt P41595); experiment: Displacement of [125I]+/-DOI from human recombinant 5-HT2B receptor at 10 uM after 60 mins by scintillation counting analysis relative to control
Sequence of 5-hydroxytryptamine receptor 2B (Homo sapiens) (P41595 whole entry): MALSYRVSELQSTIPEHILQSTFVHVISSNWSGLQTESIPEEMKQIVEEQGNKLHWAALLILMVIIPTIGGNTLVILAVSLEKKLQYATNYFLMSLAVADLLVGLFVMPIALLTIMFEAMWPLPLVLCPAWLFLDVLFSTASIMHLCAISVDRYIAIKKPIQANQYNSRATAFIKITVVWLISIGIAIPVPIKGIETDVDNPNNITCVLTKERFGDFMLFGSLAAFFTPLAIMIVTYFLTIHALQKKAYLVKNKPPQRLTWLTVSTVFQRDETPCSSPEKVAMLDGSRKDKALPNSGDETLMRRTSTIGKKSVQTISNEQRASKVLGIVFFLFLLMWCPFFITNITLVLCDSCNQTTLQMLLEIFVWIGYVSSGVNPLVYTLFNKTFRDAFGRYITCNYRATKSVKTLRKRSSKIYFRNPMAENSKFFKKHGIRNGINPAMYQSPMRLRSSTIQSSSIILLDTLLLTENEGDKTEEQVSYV

Rattus norvegicus [22] = organism: Rattus norvegicus; experiment: Displacement of [3H]-Rolipram from phosphodiesterases PDE4 rolipram binding site in rat at 10 uM incubated for 60 mins by radioligand binding assay relative to control
[23] = target: Platelet-activating factor receptor (Homo sapiens) (UniProt P25105); experiment: Displacement of [3H]-C18-PAF from human PAF receptor at 10 uM incubated for 180 mins by scintillation counting analysis relative to control
Sequence of Platelet-activating factor receptor (Homo sapiens) (P25105 whole entry): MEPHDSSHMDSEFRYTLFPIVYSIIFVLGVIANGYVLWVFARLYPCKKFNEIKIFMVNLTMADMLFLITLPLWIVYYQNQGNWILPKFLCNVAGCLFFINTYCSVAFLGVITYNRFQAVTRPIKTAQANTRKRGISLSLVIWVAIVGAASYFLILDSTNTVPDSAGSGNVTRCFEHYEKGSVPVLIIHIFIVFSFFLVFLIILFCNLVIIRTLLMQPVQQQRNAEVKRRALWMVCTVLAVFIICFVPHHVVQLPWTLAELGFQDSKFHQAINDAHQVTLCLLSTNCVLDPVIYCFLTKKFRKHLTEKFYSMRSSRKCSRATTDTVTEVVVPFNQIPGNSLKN

[24] = target: Alpha-1B adrenergic receptor (Homo sapiens) (UniProt P35368); experiment: Displacement of [3H]-Prazosin from human recombinant adrenergic alpha 1B receptor at 10 uM incubated for 60 mins by scintillation counting analysis relative to control
Sequence of Alpha-1B adrenergic receptor (Homo sapiens) (P35368 whole entry): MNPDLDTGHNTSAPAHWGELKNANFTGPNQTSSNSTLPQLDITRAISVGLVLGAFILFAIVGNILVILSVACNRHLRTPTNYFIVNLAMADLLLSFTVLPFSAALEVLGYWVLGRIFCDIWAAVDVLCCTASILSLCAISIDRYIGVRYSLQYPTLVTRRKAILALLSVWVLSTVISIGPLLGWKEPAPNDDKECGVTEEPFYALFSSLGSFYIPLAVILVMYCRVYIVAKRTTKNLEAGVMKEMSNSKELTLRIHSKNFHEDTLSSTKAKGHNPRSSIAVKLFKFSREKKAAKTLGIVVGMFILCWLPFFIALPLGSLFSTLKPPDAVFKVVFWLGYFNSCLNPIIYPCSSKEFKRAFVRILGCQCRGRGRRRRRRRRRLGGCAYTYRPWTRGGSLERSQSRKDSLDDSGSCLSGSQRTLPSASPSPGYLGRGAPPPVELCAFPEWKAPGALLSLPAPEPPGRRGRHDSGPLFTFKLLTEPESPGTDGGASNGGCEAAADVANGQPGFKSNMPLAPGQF

Rattus norvegicus [25] = organism: Rattus norvegicus; experiment: Displacement of [3H]-Flunitrazepam from GABAA channel flunitrazepam binding site in rat brain at 10 uM incubated for 60 mins by scintillation counting analysis relative to control; format: tissue-based
[26] = target: Histamine H2 receptor (Homo sapiens) (UniProt P25021); experiment: Displacement of [125I]APT from human recombinant histamine H2 receptor at 10 uM after 120 mins by scintillation counting analysis relative to control
CHO-K1 = experiment: Inhibition of human recombinant full length Dopamine D4.2 receptor expressed in CHOK1 cells at 10 uM incubated for 30 mins by GTPgammaS assay relative to control; format: cell-based
[27] = target: B2 bradykinin receptor (Homo sapiens) (UniProt P30411); experiment: Displacement of [3H]bradykinin from human recombinant B2 receptor at 10 uM after 60 mins by scintillation counting analysis relative to control
[28] = target: Cysteinyl leukotriene receptor 1 (Homo sapiens) (UniProt Q9Y271); experiment: Displacement of [3H]-LTD4 from human recombinant CysLT1 Leukotriene receptor at 10 uM incubated for 60 mins by scintillation counting analysis relative to control
Sequence of Cysteinyl leukotriene receptor 1 (Homo sapiens) (Q9Y271 whole entry): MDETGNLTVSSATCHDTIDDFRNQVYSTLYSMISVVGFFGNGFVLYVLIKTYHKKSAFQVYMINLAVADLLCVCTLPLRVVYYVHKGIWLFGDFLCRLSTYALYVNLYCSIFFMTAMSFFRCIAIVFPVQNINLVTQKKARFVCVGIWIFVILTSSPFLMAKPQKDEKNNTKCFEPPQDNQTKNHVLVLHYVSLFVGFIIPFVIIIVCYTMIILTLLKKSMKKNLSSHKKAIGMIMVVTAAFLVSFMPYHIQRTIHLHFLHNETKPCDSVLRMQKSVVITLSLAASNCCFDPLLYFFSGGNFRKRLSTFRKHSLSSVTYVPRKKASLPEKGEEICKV

[29] = Fraction unbound in mouse plasma at 5 uM incubated for 4 hrs by equilibrium dialysis based LC-MS/MS analysis; format: ADME, cell-free
[30] = target: Neuropeptide Y receptor type 2 (Homo sapiens) (UniProt P49146); experiment: Displacement of [125I]peptide YY from human Y2 receptor at 10 uM after 120 mins by scintillation counting analysis relative to control

Sequence of Mu-type opioid receptor (Homo sapiens) (P35372 whole entry): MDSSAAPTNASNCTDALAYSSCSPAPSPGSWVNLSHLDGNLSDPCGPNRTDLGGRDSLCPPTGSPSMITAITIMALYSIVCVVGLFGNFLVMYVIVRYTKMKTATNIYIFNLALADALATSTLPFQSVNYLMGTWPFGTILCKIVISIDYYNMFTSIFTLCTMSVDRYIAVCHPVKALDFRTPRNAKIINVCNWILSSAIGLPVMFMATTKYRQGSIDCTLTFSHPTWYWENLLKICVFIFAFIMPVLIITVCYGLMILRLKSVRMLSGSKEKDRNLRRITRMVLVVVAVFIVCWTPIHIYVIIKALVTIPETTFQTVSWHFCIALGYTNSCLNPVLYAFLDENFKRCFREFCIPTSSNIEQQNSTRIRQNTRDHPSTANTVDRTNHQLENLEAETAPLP

With `COc1cc(F)cc2c(N3CCN(c4ccccc4F)CC3)c(C#N)cnc12` as the molecule, how does the inhibition ([1]; tested as the 2H-labelled form) read?
Its inhibition is under 50%.

What about the Activity [2] of the same molecule?
The Activity was 98%.

What about the Activity ([2]; tested as the 2H-labelled form) of the same molecule?
The Activity was 98%.

What about the inhibition ([3]; tested as the 2H-labelled form) of the same molecule?
Its inhibition is under 50%.

And the Activity ([4]; tested as the 2H-labelled form)?
The Activity was 62.8%.

What about the inhibition ([5]; tested as the 2H-labelled form) of the same molecule?
The inhibition was under 50%.

And the fraction unbound at 4 h, 5 µM [6]?
The fraction unbound at 4 h, 5 µM was 0.01.

And the inhibition ([7]; tested as the 2H-labelled form)?
The inhibition was under 50%.

And the EC50 [8]?
The EC50 was 1400 nM.

What about the inhibition ([9]; tested as the 2H-labelled form) of the same molecule?
Its inhibition is under 50%.

What about the inhibition ([10]; tested as the 2H-labelled form) of the same molecule?
The inhibition was under 50%.

What about the inhibition ([11]; tested as the 2H-labelled form) of the same molecule?
The inhibition was under 50%.

And the inhibition ([12]; tested as the 2H-labelled form)?
The inhibition was under 50%.

What about the inhibition ([13]; tested as the 2H-labelled form) of the same molecule?
The inhibition was under 50%.

And the inhibition (Rattus norvegicus [14]; tested as the 2H-labelled form)?
Its inhibition is under 50%.

And the inhibition ([15]; tested as the 2H-labelled form)?
Its inhibition is under 50%.

And the inhibition ([16]; tested as the 2H-labelled form)?
Its inhibition is under 50%.

And the inhibition ([17]; tested as the 2H-labelled form)?
Its inhibition is under 50%.

What about the inhibition ([18]; tested as the 2H-labelled form) of the same molecule?
The inhibition was under 50%.

What about the inhibition (Rattus norvegicus [19]; tested as the 2H-labelled form) of the same molecule?
The inhibition was under 50%.

What about the inhibition (Rattus norvegicus [20]; tested as the 2H-labelled form) of the same molecule?
Its inhibition is under 50%.

And the inhibition ([21]; tested as the 2H-labelled form)?
The inhibition was under 50%.

And the inhibition (Rattus norvegicus [22]; tested as the 2H-labelled form)?
The inhibition was under 50%.

What about the inhibition ([23]; tested as the 2H-labelled form) of the same molecule?
The inhibition was under 50%.

What about the inhibition ([24]; tested as the 2H-labelled form) of the same molecule?
Its inhibition is under 50%.

And the inhibition (Rattus norvegicus [25]; tested as the 2H-labelled form)?
Its inhibition is under 50%.

What about the inhibition ([26]; tested as the 2H-labelled form) of the same molecule?
Its inhibition is under 50%.

What about the inhibition (CHO-K1; tested as the 2H-labelled form) of the same molecule?
The inhibition was under 50%.

And the inhibition ([27]; tested as the 2H-labelled form)?
Its inhibition is under 50%.

And the inhibition ([28]; tested as the 2H-labelled form)?
The inhibition was under 50%.

What about the fraction unbound at 4 h, 5 µM [29] of the same molecule?
Its fraction unbound at 4 h, 5 µM is 0.012.

And the inhibition ([30]; tested as the 2H-labelled form)?
Its inhibition is under 50%.

For `COc1cccc2c(N3CCN(c4ccccc4F)CC3)c(C#N)cnc12`, which inhibition [1] is on record?
The inhibition was under 50%.

And the Activity [2]?
Its Activity is 85.1%.

And the Activity ([2]; tested as the 2H-labelled form)?
Its Activity is 73%.

What about the inhibition [3] of the same molecule?
The inhibition was under 50%.

What about the Activity [4] of the same molecule?
Its Activity is 51.3%.

And the inhibition [5]?
The inhibition was under 50%.

What about the fraction unbound at 4 h, 5 µM [6] of the same molecule?
The fraction unbound at 4 h, 5 µM was 0.032.

What about the inhibition [7] of the same molecule?
The inhibition was under 50%.

What about the EC50 [8] of the same molecule?
Its EC50 is 1100 nM.

What about the inhibition [9] of the same molecule?
The inhibition was under 50%.

What about the inhibition [10] of the same molecule?
Its inhibition is under 50%.

And the inhibition [11]?
The inhibition was under 50%.

And the inhibition [12]?
The inhibition was under 50%.

What about the inhibition [13] of the same molecule?
Its inhibition is under 50%.

What about the inhibition (Rattus norvegicus [14]) of the same molecule?
The inhibition was under 50%.

What about the inhibition [15] of the same molecule?
Its inhibition is under 50%.

What about the inhibition [16] of the same molecule?
Its inhibition is under 50%.

What about the inhibition [17] of the same molecule?
The inhibition was under 50%.

What about the inhibition [18] of the same molecule?
The inhibition was under 50%.

What about the inhibition (Rattus norvegicus [19]) of the same molecule?
The inhibition was under 50%.

What about the inhibition (Rattus norvegicus [20]) of the same molecule?
The inhibition was under 50%.

What about the inhibition [21] of the same molecule?
The inhibition was under 50%.

What about the inhibition (Rattus norvegicus [22]) of the same molecule?
The inhibition was under 50%.

What about the inhibition [23] of the same molecule?
Its inhibition is under 50%.

What about the inhibition [24] of the same molecule?
The inhibition was under 50%.

And the inhibition (Rattus norvegicus [25])?
Its inhibition is under 50%.

What about the inhibition [26] of the same molecule?
Its inhibition is under 50%.

And the inhibition (CHO-K1)?
The inhibition was under 50%.

And the inhibition [27]?
The inhibition was under 50%.

What about the inhibition [28] of the same molecule?
Its inhibition is under 50%.

And the fraction unbound at 4 h, 5 µM [29]?
Its fraction unbound at 4 h, 5 µM is 0.051.

And the inhibition [30]?
Its inhibition is under 50%.
